Data set [1] deals with Staphylococcus aureus. In words: Antimicrobial activity against methicillin resistant Staphylococcus aureus C5382 assessed as inhibition of cell growth in the presence of oxacillin at 1/2 times of MIC by microdilution method. Type of data set: functional. Background: Dilution methods test growth across graded concentrations, often in twofold steps.
In data set [2] the test system is Staphylococcus aureus. The data set can be described thus: Antimicrobial activity against methicillin resistant Staphylococcus aureus C5382 assessed as inhibition of cell growth in the presence of oxacillin at 1/4 times of MIC by microdilution method. Type of data set: functional.
Data set [3] concerns Staphylococcus aureus. The data set can be described thus: Antimicrobial activity against methicillin resistant Staphylococcus aureus C4058 assessed as inhibition of cell growth in the presence of oxacillin at 1/4 times of MIC by microdilution method. Type of data set: functional.
In data set [4] the test system is Staphylococcus aureus. The data set can be described thus: Antimicrobial activity against methicillin resistant Staphylococcus aureus C5294 assessed as inhibition of cell growth in the presence of oxacillin at 1/4 times of MIC by microdilution method. Type of data set: functional.
For data set [5], the system named is Staphylococcus aureus. In words: Antimicrobial activity against methicillin resistant Staphylococcus aureus C5380 assessed as inhibition of cell growth in the presence of oxacillin at 1/2 times of MIC by microdilution method. Format: functional.
Data set [6] relates to Staphylococcus aureus. In words: Antimicrobial activity against methicillin resistant Staphylococcus aureus C3787 assessed as inhibition of cell growth in the presence of oxacillin at 1/2 times of MIC by microdilution method. Type of data set: functional.
Data set [7] relates to Staphylococcus aureus. The data set can be described thus: Antimicrobial activity against methicillin resistant Staphylococcus aureus C5171 assessed as inhibition of cell growth in the presence of oxacillin at 1/8 times of MIC by microdilution method. Format: functional.
In data set [8] the test system is Staphylococcus aureus. In words: Antimicrobial activity against methicillin resistant Staphylococcus aureus C5177 assessed as inhibition of cell growth in the presence of oxacillin at 1/2 times of MIC by microdilution method. Type of data set: functional.
Data set [9] deals with Staphylococcus aureus. In words: Antimicrobial activity against methicillin resistant Staphylococcus aureus K118 assessed as inhibition of cell growth in the presence of oxacillin at 1/8 times of MIC by microdilution method. Type of data set: functional.
The test system of data set [10] is Staphylococcus aureus. The data set can be described thus: Antimicrobial activity against methicillin resistant Staphylococcus aureus C4058 assessed as inhibition of cell growth in the presence of oxacillin at 1/2 times of MIC by microdilution method. Format: functional.
Data set [11] relates to Staphylococcus aureus. The data set can be described thus: Antimicrobial activity against methicillin resistant Staphylococcus aureus C5282 assessed as inhibition of cell growth in the presence of oxacillin at 1/4 times of MIC by microdilution method. Type of data set: functional.
Data set [12] concerns Staphylococcus aureus. The data set can be described thus: Antimicrobial activity against methicillin resistant Staphylococcus aureus C5177 assessed as inhibition of cell growth in the presence of oxacillin at 1/8 times of MIC by microdilution method. Type of data set: functional.
For data set [13], the system named is Staphylococcus aureus. In words: Antimicrobial activity against methicillin resistant Staphylococcus aureus C3212 assessed as inhibition of cell growth in the presence of oxacillin at 1/4 times of MIC by microdilution method. Type of data set: functional.
Data set [14] has as its system Staphylococcus aureus. In words: Antimicrobial activity against methicillin resistant Staphylococcus aureus C5380 assessed as inhibition of cell growth in the presence of oxacillin at 1/4 times of MIC by microdilution method. Type of data set: functional.
Data set [15] has as its system Staphylococcus aureus. In words: Antimicrobial activity against methicillin resistant Staphylococcus aureus C5269 assessed as inhibition of cell growth in the presence of oxacillin at 1/4 times of MIC by microdilution method. Format: functional.
For data set [16], the system named is Staphylococcus aureus. The data set can be described thus: Antimicrobial activity against methicillin resistant Staphylococcus aureus C5294 assessed as inhibition of cell growth in the presence of oxacillin at 1/8 times of MIC by microdilution method. Format: functional.
Data set [17] concerns Staphylococcus aureus. In words: Antimicrobial activity against methicillin resistant Staphylococcus aureus C5382 assessed as inhibition of cell growth in the presence of oxacillin at 1/8 times of MIC by microdilution method. Type of data set: functional.
Data set [18] has as its system Staphylococcus aureus. The data set can be described thus: Antimicrobial activity against methicillin resistant Staphylococcus aureus C3212 assessed as inhibition of cell growth in the presence of oxacillin at 1/8 times of MIC by microdilution method. Type of data set: functional.
Data set [19] concerns Staphylococcus aureus. The data set can be described thus: Antimicrobial activity against methicillin resistant Staphylococcus aureus C5380 assessed as inhibition of cell growth in the presence of oxacillin at 1/8 times of MIC by microdilution method. Format: functional.
Data set [20] deals with Staphylococcus aureus. In words: Antimicrobial activity against methicillin resistant Staphylococcus aureus K118 assessed as inhibition of cell growth in the presence of oxacillin at 1/4 times of MIC by microdilution method. Format: functional.
In data set [21] the test system is Staphylococcus aureus. The data set can be described thus: Antimicrobial activity against methicillin resistant Staphylococcus aureus C5171 assessed as inhibition of cell growth in the presence of oxacillin at 1/4 times of MIC by microdilution method. Type of data set: functional.
Data set [22] relates to Staphylococcus aureus. In words: Antimicrobial activity against methicillin resistant Staphylococcus aureus C5282 assessed as inhibition of cell growth in the presence of oxacillin at 1/8 times of MIC by microdilution method. Type of data set: functional.
The test system of data set [23] is Staphylococcus aureus. The data set can be described thus: Antimicrobial activity against methicillin resistant Staphylococcus aureus C3787 assessed as inhibition of cell growth in the presence of oxacillin at 1/4 times of MIC by microdilution method. Type of data set: functional.
For data set [24], the system named is Staphylococcus aureus. In words: Antimicrobial activity against methicillin resistant Staphylococcus aureus C3787 assessed as inhibition of cell growth in the presence of oxacillin at 1/8 times of MIC by microdilution method. Type of data set: functional.
The test system of data set [25] is Staphylococcus aureus. The data set can be described thus: Antimicrobial activity against methicillin resistant Staphylococcus aureus C3212 assessed as inhibition of cell growth in the presence of oxacillin at 1/2 times of MIC by microdilution method. Format: functional.
For data set [26], the system named is Staphylococcus aureus. The data set can be described thus: Antimicrobial activity against methicillin resistant Staphylococcus aureus C5269 assessed as inhibition of cell growth in the presence of oxacillin at 1/8 times of MIC by microdilution method. Format: functional.
For data set [27], the system named is Staphylococcus aureus. The data set can be described thus: Antimicrobial activity against methicillin resistant Staphylococcus aureus C5171 assessed as inhibition of cell growth in the presence of oxacillin at 1/2 times of MIC by microdilution method. Format: functional.
Data set [28] concerns Staphylococcus aureus. In words: Antimicrobial activity against methicillin resistant Staphylococcus aureus C4058 assessed as inhibition of cell growth in the presence of oxacillin at 1/8 times of MIC by microdilution method. Format: functional.
Data set [29] relates to Staphylococcus aureus. The data set can be described thus: Antimicrobial activity against methicillin resistant Staphylococcus aureus C5294 assessed as inhibition of cell growth in the presence of oxacillin at 1/2 times of MIC by microdilution method. Format: functional.
Data set [30] relates to Staphylococcus aureus. The data set can be described thus: Antimicrobial activity against methicillin resistant Staphylococcus aureus C5177 assessed as inhibition of cell growth in the presence of oxacillin at 1/4 times of MIC by microdilution method. Format: functional.
Data set [31] deals with Staphylococcus aureus. In words: Antibacterial activity against Staphylococcus aureus NRS120 assessed as inhibition of bacterial growth by CLSI protocol based microdilution method. Format: functional.
The subject of data set [32] is Staphylococcus aureus. The data set can be described thus: Antibacterial activity against Staphylococcus aureus NRS100 (COL) assessed as inhibition of bacterial growth by CLSI protocol based microdilution method. Format: functional.
The test system of data set [33] is Staphylococcus aureus. In words: Antibacterial activity against Staphylococcus aureus ATCC 27660 assessed as inhibition of bacterial growth by CLSI protocol based microdilution method. Format: functional.
Data set [34] concerns Staphylococcus aureus. In words: Antibacterial activity against vancomycin resistant Staphylococcus aureus 2 assessed as inhibition of bacterial growth by CLSI protocol based microdilution method. Format: functional.
Data set [35] is described as follows: Elimination half life in ICR mouse at 50 mg/kg, iv. Format: ADME, organism-based. The settings on record: in vivo, read-out: beta t1/2 (converted).
The test system of data set [36] is Staphylococcus aureus. In words: Antibacterial activity against vancomycin resistant Staphylococcus aureus 1 assessed as inhibition of bacterial growth by CLSI protocol based microdilution method. Format: functional.
In data set [37] the test system is Staphylococcus aureus. In words: Antibacterial activity against Staphylococcus aureus NRS119 assessed as inhibition of bacterial growth by CLSI protocol based microdilution method. Type of data set: functional.
Data set [38] in a line: Oral bioavailability in ICR mouse at 50 mg/kg. Format: ADME, organism-based. The settings on record: in vivo.
Data set [39] concerns Staphylococcus aureus. The data set can be described thus: Antibacterial activity against Staphylococcus aureus ATCC 29213 assessed as inhibition of bacterial growth by CLSI protocol based microdilution method. Type of data set: functional.
Data set [40] relates to Staphylococcus aureus. The data set can be described thus: Antibacterial activity against methicillin resistant Staphylococcus aureus 128 assessed as inhibition of bacterial growth. Type of data set: functional.
Data set [41] has as its system Staphylococcus aureus. In words: Antibacterial activity against methicillin resistant Staphylococcus aureus 181 assessed as inhibition of bacterial growth. Format: functional.
Data set [42] concerns Staphylococcus aureus. In words: Antibacterial activity against methicillin resistant Staphylococcus aureus 42 assessed as inhibition of bacterial growth. Type of data set: functional.
For data set [43], the system named is Staphylococcus aureus. In words: Potency index, ratio of cefepime MIC to test compound MIC for antibacterial activity against methicillin resistant Staphylococcus aureus 42 assessed as inhibition of bacterial growth. Format: functional.
For data set [44], the system named is Staphylococcus aureus. In words: Antibacterial activity against methicillin resistant Staphylococcus aureus 747 assessed as inhibition of bacterial growth. Type of data set: functional.

The structures appear in SMILES notation. Converted amounts (≈) assume the structure as drawn.

`FC(F)(F)c1ccc(Oc2ccc(-c3noc(-c4ccc5[nH]ccc5c4)n3)cc2)cc1`: the MIC with Staphylococcus aureus [1], in the data set on Staphylococcus aureus [2], in the data set with Staphylococcus aureus [3], in the data set on Staphylococcus aureus [4], in the data set with Staphylococcus aureus [5] and in the data set with Staphylococcus aureus [6] was at most 0.03 µg/mL in each case. In addition, the MIC was at most 0.03 µg/mL in the data set on Staphylococcus aureus [7]; at most 0.03 µg/mL in the data set with Staphylococcus aureus [8]; at most 0.03 µg/mL in the data set on Staphylococcus aureus [9]; at most 0.03 µg/mL in the data set with Staphylococcus aureus [10]; at most 0.03 µg/mL in the data set on Staphylococcus aureus [11]; below 0.03 µg/mL with Staphylococcus aureus [12]. In addition, the MIC with Staphylococcus aureus [13], in the data set with Staphylococcus aureus [14], in the data set on Staphylococcus aureus [15], with Staphylococcus aureus [16], with Staphylococcus aureus [17] and in the data set on Staphylococcus aureus [18] was at most 0.03 µg/mL each time. Also, the MIC with Staphylococcus aureus [19], in the data set on Staphylococcus aureus [20], in the data set on Staphylococcus aureus [21], with Staphylococcus aureus [22], in the data set on Staphylococcus aureus [23] and in the data set with Staphylococcus aureus [24] was at most 0.03 µg/mL each time. Moreover, the MIC in the data set on Staphylococcus aureus [25], in the data set on Staphylococcus aureus [26], with Staphylococcus aureus [27], in the data set on Staphylococcus aureus [28], in the data set with Staphylococcus aureus [29] and in the data set on Staphylococcus aureus [30] was at most 0.03 µg/mL in each case.

For `Oc1ccc(-c2nc(-c3ccc(Oc4ccc(C(F)(F)F)cc4)cc3)no2)cc1`, the MIC in the data set with Staphylococcus aureus [31], with Staphylococcus aureus [32], in the data set with Staphylococcus aureus [33], with Staphylococcus aureus [34], in the data set with Staphylococcus aureus [36] and with Staphylococcus aureus [37] was 2 µg/mL (≈ 5.02 µM) throughout. In the data set with Staphylococcus aureus [39], the MIC was 2 µg/mL (≈ 5.02 µM). Further, the half-life in data set [35] was 40 h. The bioavailability in data set [38] was 100%.

As for `O=c1c(Br)cnc2onc(-c3ccc(F)cc3F)n12`, the MIC with Staphylococcus aureus [40] is 17.6 µg/mL (≈ 53.6 µM); with Staphylococcus aureus [41], 29.9 µg/mL (≈ 91.1 µM); in the data set on Staphylococcus aureus [42] it was 12.4 µg/mL (≈ 37.8 µM); with Staphylococcus aureus [44], 29.9 µg/mL (≈ 91.1 µM). Also, the Ratio in the data set on Staphylococcus aureus [43] was determined as 3.

The MIC is the lowest concentration that inhibits growth of the organism. By bioavailability is commonly meant the share of a dose that reaches the circulation, judged against a reference dose that is usually intravenous.

The values are drawn from ChEMBL document CHEMBL5241069, “A key review on oxadiazole analogs as potential methicillin-resistant Staphylococcus aureus (MRSA) activity: Structure-activity relationship studies” (Eur J Med Chem, 2021).
